Measurements as given in the kinase profiling compilation of Christmann-Franck et al. (2016).

Key:
Assay in all cases: radiometric filter-binding kinase assay, Kinase HotSpot
Details in all cases: compound 0.5 µM; ATP 10 µM
BMX (human) = BMX (human) (UniProt P51813)
CAMK2A (human) = CAMK2A (human) (UniProt Q9UQM7)
CAMK2G (human) = CAMK2G (human) (UniProt Q13555)
CDK2 CCNE1 (human) = CDK2 CCNE1 (human) (UniProt P24941+P24864)
CDK6 CCND3 (human) = CDK6 CCND3 (human) (UniProt P30281+Q00534)
CSF1R (human) = CSF1R (human) (UniProt P07333)
CSF1R (human), sequence (P07333 whole entry, looked up): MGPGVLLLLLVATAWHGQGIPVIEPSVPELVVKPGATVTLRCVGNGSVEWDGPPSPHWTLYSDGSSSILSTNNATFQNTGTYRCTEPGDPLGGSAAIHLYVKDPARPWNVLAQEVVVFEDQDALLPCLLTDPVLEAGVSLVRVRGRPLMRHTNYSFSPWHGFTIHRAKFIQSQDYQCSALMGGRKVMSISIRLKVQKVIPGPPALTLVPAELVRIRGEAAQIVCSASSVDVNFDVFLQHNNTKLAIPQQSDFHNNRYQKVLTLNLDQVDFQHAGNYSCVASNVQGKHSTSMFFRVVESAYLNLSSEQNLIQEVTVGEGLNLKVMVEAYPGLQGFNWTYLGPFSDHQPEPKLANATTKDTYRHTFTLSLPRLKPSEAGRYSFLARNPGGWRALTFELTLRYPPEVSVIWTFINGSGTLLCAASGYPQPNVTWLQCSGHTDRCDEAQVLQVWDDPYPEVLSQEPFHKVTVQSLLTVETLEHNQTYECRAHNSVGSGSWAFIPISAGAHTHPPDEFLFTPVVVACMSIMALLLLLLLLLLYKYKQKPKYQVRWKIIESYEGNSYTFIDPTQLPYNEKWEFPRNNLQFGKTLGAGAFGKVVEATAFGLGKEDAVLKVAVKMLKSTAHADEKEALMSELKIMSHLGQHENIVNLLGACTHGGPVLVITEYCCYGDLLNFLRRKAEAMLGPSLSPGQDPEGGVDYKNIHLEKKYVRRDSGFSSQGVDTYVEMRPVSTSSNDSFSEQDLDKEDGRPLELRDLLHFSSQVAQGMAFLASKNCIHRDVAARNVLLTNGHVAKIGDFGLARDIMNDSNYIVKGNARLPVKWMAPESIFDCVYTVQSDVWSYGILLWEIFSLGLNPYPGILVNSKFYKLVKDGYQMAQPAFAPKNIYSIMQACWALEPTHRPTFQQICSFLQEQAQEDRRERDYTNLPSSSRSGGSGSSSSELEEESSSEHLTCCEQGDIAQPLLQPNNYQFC

DYRK3 (human) = DYRK3 (human) (UniProt O43781)
EPHA3 (human) = EPHA3 (human) (UniProt P29320)
FER (human) = FER (human) (UniProt P16591)
GSG2 (human) = GSG2 (human) (UniProt Q8TF76)
IGF1R (human) = IGF1R (human) (UniProt P08069)
IGF1R (human), sequence (P08069 whole entry, looked up): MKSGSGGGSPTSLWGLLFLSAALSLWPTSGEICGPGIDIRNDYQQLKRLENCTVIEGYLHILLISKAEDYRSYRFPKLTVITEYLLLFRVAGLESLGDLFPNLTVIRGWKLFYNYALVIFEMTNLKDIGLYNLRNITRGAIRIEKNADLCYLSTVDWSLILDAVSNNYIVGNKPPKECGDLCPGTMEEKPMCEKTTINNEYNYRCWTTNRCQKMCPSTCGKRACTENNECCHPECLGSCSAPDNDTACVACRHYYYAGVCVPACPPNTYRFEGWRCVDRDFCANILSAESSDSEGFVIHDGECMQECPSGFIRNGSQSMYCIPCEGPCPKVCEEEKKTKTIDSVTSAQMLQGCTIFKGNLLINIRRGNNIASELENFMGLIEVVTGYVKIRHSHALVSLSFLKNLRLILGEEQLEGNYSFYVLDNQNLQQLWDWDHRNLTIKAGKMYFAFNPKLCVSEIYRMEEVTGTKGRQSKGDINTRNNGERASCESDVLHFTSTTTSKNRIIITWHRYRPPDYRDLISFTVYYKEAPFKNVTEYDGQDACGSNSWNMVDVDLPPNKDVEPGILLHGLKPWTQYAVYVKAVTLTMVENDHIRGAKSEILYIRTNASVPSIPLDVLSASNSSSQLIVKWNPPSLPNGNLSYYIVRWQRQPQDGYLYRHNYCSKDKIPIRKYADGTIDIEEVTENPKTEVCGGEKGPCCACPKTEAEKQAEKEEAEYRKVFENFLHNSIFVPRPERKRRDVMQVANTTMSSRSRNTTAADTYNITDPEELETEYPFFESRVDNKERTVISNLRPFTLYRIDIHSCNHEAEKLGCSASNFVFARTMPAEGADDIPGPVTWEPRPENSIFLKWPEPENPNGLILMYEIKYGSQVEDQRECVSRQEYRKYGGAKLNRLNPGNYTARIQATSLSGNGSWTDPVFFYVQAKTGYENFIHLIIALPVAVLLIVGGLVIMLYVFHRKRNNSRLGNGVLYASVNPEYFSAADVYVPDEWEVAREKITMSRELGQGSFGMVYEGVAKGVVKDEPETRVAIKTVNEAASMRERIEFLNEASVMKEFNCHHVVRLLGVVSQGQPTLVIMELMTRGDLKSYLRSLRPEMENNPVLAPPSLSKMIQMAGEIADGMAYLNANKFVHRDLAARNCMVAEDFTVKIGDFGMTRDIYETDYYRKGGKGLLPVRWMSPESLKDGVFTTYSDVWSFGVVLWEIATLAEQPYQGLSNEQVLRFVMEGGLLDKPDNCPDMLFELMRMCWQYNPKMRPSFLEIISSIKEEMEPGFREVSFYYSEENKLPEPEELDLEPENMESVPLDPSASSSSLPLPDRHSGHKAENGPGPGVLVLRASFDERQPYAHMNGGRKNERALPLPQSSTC

IRAK4 (human) = IRAK4 (human) (UniProt Q9NWZ3)
ITK (human) = ITK (human) (UniProt Q08881)
ITK (human), sequence (Q08881 whole entry, looked up): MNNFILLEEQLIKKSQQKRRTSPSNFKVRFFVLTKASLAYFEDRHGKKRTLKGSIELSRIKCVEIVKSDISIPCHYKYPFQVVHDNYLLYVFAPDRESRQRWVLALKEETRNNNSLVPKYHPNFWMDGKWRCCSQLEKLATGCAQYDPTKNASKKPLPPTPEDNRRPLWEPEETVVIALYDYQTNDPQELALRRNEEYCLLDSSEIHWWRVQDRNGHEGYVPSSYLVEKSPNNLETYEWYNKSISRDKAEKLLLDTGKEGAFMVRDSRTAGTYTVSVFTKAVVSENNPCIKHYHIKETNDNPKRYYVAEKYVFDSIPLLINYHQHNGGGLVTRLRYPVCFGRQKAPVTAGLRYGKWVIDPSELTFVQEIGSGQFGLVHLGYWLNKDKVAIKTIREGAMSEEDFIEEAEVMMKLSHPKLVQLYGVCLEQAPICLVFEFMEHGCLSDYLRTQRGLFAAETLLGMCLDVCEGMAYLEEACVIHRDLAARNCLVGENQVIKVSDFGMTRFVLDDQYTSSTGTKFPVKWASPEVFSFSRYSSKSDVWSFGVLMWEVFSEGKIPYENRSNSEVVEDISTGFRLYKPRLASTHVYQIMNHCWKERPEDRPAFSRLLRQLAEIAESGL

MAP2K1 (human) = MAP2K1 (human) (UniProt Q02750)
MAP2K2 (human) = MAP2K2 (human) (UniProt P36507)
MAP4K2 (human) = MAP4K2 (human) (UniProt Q12851)
MAP4K4 (human) = MAP4K4 (human) (UniProt O95819)
MAPK1 (human) = MAPK1 (human) (UniProt P28482)
MAPKAPK2 (human) = MAPKAPK2 (human) (UniProt P49137)
MATK (human) = MATK (human) (UniProt P42679)
MINK1 (human) = MINK1 (human) (UniProt Q8N4C8)
MST1R (human) = MST1R (human) (UniProt Q04912)
MUSK (human) = MUSK (human) (UniProt O15146)
NEK11 (human) = NEK11 (human) (UniProt Q8NG66)
PAK1 (human) = PAK1 (human) (UniProt Q13153)
PBK (human) = PBK (human) (UniProt Q96KB5)
PBK (human), sequence (Q96KB5 whole entry, looked up): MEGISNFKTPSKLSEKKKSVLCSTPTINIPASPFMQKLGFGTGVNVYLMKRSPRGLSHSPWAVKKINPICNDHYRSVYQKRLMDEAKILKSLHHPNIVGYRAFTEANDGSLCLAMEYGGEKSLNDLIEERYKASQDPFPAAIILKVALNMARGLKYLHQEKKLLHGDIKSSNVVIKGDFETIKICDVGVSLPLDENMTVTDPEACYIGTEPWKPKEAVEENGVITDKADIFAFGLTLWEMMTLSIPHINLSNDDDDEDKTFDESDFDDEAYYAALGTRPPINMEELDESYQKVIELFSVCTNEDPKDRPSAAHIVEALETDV

PIM3 (human) = PIM3 (human) (UniProt Q86V86)
PKN1 (human) = PKN1 (human) (UniProt Q16512)
PRKCB2 (human) = PRKCB2 (human) (UniProt P05771)
PRKD1 (human) = PRKD1 (human) (UniProt Q15139)
PTK2 (human) = PTK2 (human) (UniProt Q05397)
ROCK1 (human) = ROCK1 (human) (UniProt Q13464)
ROCK2 (human) = ROCK2 (human) (UniProt O75116)
ROCK2 (human), sequence (O75116 whole entry, looked up): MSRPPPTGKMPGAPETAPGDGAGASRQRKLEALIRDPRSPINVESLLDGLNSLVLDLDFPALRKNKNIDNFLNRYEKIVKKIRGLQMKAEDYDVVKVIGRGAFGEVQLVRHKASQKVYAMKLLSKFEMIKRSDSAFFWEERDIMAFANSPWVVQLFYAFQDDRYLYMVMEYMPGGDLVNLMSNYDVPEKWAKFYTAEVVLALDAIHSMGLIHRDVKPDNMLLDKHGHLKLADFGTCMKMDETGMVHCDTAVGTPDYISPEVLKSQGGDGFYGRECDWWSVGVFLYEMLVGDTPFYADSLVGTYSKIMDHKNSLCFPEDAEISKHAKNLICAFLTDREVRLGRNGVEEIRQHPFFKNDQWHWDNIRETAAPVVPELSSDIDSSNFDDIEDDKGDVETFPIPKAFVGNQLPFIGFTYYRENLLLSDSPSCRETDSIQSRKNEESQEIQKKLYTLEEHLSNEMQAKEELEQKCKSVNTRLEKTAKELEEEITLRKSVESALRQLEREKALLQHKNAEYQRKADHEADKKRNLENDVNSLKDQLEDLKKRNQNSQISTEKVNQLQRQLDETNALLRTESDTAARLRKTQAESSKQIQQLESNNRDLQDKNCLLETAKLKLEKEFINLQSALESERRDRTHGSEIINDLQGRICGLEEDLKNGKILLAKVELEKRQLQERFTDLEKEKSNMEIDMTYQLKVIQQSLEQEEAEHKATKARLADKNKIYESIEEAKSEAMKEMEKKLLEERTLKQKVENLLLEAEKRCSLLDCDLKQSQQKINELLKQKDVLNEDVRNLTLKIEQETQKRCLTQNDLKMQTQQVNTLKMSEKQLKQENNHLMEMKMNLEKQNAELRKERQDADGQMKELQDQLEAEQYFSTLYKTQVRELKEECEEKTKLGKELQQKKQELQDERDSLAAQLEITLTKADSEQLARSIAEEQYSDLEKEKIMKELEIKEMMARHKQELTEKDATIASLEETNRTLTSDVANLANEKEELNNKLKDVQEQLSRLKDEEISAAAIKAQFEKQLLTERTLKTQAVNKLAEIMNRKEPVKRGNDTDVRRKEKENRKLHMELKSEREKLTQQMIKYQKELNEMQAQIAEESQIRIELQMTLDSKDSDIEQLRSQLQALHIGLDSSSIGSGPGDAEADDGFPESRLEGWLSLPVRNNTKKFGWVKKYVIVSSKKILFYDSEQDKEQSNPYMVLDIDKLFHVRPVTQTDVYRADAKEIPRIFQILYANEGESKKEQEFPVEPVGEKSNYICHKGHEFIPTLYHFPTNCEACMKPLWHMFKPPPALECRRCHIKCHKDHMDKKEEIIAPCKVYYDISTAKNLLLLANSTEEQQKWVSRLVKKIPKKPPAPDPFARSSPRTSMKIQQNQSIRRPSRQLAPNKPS

RPS6KA3 KD1 KD2 (human) = RPS6KA3 KD1 KD2 (human) (UniProt P51812)
RPS6KA4 KD2 (human) = RPS6KA4 KD2 (human) (UniProt O75676)
SLK (human) = SLK (human) (UniProt Q9H2G2)
SRC (human) = SRC (human) (UniProt P12931)
STK39 (human) = STK39 (human) (UniProt Q9UEW8)
TNK2 (human) = TNK2 (human) (UniProt Q07912)
[1] = target: TYK2 JH1 catalytic (human) (UniProt P29597)
WNK2 (human) = WNK2 (human) (UniProt Q9Y3S1)
YES1 (human) = YES1 (human) (UniProt P07947)

CDK2 CCNE1 (human), sequence (P24864 whole entry, looked up, other chains not shown): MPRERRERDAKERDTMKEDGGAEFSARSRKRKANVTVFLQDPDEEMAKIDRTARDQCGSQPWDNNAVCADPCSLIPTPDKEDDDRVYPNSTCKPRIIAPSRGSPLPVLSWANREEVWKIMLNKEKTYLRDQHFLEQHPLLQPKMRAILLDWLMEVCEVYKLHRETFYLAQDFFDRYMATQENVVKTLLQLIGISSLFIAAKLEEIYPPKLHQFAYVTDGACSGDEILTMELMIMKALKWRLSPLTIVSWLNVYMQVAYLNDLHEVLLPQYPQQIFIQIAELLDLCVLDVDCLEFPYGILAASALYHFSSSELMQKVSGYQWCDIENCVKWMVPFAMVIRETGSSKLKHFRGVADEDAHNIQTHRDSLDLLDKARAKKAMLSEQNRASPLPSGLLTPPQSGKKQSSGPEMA

Which residual activity (BMX (human)) does the source give for O=C(NC(NC(=S)Nc1ccc(F)c([N+](=O)[O-])c1)C(Cl)(Cl)Cl)C(c1ccccc1)c1ccccc1 (stereo unspecified) here?
Its residual activity is 102%.

And the residual activity (CAMK2A (human))?
The residual activity was 96%.

And the residual activity (CAMK2G (human))?
Its residual activity is 107%.

What about the residual activity (CDK2 CCNE1 (human)) of the same compound?
The residual activity was 89.2%.

What about the residual activity (CDK6 CCND3 (human)) of the same compound?
The residual activity was 99.3%.

What about the residual activity (CSF1R (human)) of the same compound?
Its residual activity is 96.2%.

What about the residual activity (DYRK3 (human)) of the same compound?
The residual activity was 100%.

And the residual activity (EPHA3 (human))?
The residual activity was 105%.

What about the residual activity (FER (human)) of the same compound?
The residual activity was 104%.

And the residual activity (GSG2 (human))?
Its residual activity is 109%.

And the residual activity (IGF1R (human))?
Its residual activity is 93.7%.

And the residual activity (IRAK4 (human))?
Its residual activity is 191%.

And the residual activity (ITK (human))?
The residual activity was 94.9%.

What about the residual activity (MAP2K1 (human)) of the same compound?
Its residual activity is 95.1%.

What about the residual activity (MAP2K2 (human)) of the same compound?
The residual activity was 82.3%.

What about the residual activity (MAP4K2 (human)) of the same compound?
The residual activity was 111%.

And the residual activity (MAP4K4 (human))?
The residual activity was 92.7%.

What about the residual activity (MAPK1 (human)) of the same compound?
The residual activity was 97.6%.

What about the residual activity (MAPKAPK2 (human)) of the same compound?
The residual activity was 96.3%.

What about the residual activity (MATK (human)) of the same compound?
Its residual activity is 96.5%.

What about the residual activity (MINK1 (human)) of the same compound?
Its residual activity is 110%.

What about the residual activity (MST1R (human)) of the same compound?
Its residual activity is 102%.

What about the residual activity (MUSK (human)) of the same compound?
Its residual activity is 106%.

What about the residual activity (NEK11 (human)) of the same compound?
The residual activity was 92.2%.

And the residual activity (PAK1 (human))?
Its residual activity is 86%.

And the residual activity (PBK (human))?
The residual activity was 116%.

And the residual activity (PIM3 (human))?
Its residual activity is 120%.

And the residual activity (PKN1 (human))?
Its residual activity is 92.8%.

What about the residual activity (PRKCB2 (human)) of the same compound?
Its residual activity is 107%.

And the residual activity (PRKD1 (human))?
The residual activity was 96.9%.

And the residual activity (PTK2 (human))?
The residual activity was 113%.

What about the residual activity (ROCK1 (human)) of the same compound?
Its residual activity is 99.8%.

And the residual activity (ROCK2 (human))?
The residual activity was 109%.

What about the residual activity (RPS6KA3 KD1 KD2 (human)) of the same compound?
The residual activity was 96.2%.

What about the residual activity (RPS6KA4 KD2 (human)) of the same compound?
The residual activity was 92.7%.

And the residual activity (SLK (human))?
Its residual activity is 95.2%.

And the residual activity (SRC (human))?
Its residual activity is 96.1%.

What about the residual activity (STK39 (human)) of the same compound?
The residual activity was 77%.

What about the residual activity (TNK2 (human)) of the same compound?
The residual activity was 98%.

And the residual activity [1]?
The residual activity was 94%.

What about the residual activity (WNK2 (human)) of the same compound?
The residual activity was 117%.

And the residual activity (YES1 (human))?
The residual activity was 94.6%.

For Nc1n[nH]c2nnc(-c3c(-c4ccccc4)nn4ccccc34)cc12, which residual activity (BMX (human)) is on record?
Its residual activity is 84.4%.

What about the residual activity (CAMK2A (human)) of the same compound?
Its residual activity is 102%.

And the residual activity (CAMK2G (human))?
The residual activity was 96.7%.

What about the residual activity (CDK2 CCNE1 (human)) of the same compound?
Its residual activity is 101%.

What about the residual activity (CDK6 CCND3 (human)) of the same compound?
Its residual activity is 90.4%.

And the residual activity (CSF1R (human))?
Its residual activity is 96.8%.

What about the residual activity (DYRK3 (human)) of the same compound?
The residual activity was 99.8%.

And the residual activity (EPHA3 (human))?
The residual activity was 97.8%.

What about the residual activity (FER (human)) of the same compound?
Its residual activity is 90.8%.

What about the residual activity (GSG2 (human)) of the same compound?
The residual activity was 97.1%.

What about the residual activity (IGF1R (human)) of the same compound?
The residual activity was 102%.

And the residual activity (IRAK4 (human))?
Its residual activity is 99.7%.

What about the residual activity (ITK (human)) of the same compound?
The residual activity was 90.8%.

What about the residual activity (MAP2K1 (human)) of the same compound?
Its residual activity is 94.3%.

What about the residual activity (MAP2K2 (human)) of the same compound?
Its residual activity is 99.4%.

And the residual activity (MAP4K2 (human))?
The residual activity was 98.6%.

And the residual activity (MAP4K4 (human))?
Its residual activity is 62%.

What about the residual activity (MAPK1 (human)) of the same compound?
The residual activity was 87.2%.

What about the residual activity (MAPKAPK2 (human)) of the same compound?
The residual activity was 105%.

And the residual activity (MATK (human))?
Its residual activity is 95.6%.

And the residual activity (MINK1 (human))?
Its residual activity is 73%.

What about the residual activity (MST1R (human)) of the same compound?
The residual activity was 102%.

What about the residual activity (MUSK (human)) of the same compound?
Its residual activity is 96.8%.

What about the residual activity (NEK11 (human)) of the same compound?
Its residual activity is 95.1%.

What about the residual activity (PAK1 (human)) of the same compound?
The residual activity was 91.9%.

And the residual activity (PBK (human))?
Its residual activity is 95%.

What about the residual activity (PIM3 (human)) of the same compound?
The residual activity was 100%.

What about the residual activity (PKN1 (human)) of the same compound?
The residual activity was 98.2%.

And the residual activity (PRKCB2 (human))?
The residual activity was 99.7%.

And the residual activity (PRKD1 (human))?
The residual activity was 68.4%.

And the residual activity (PTK2 (human))?
Its residual activity is 99.2%.

What about the residual activity (ROCK1 (human)) of the same compound?
The residual activity was 100%.

What about the residual activity (ROCK2 (human)) of the same compound?
The residual activity was 89.6%.

What about the residual activity (RPS6KA3 KD1 KD2 (human)) of the same compound?
The residual activity was 98.7%.

What about the residual activity (RPS6KA4 KD2 (human)) of the same compound?
Its residual activity is 94.7%.

And the residual activity (SLK (human))?
The residual activity was 94%.

What about the residual activity (SRC (human)) of the same compound?
Its residual activity is 100%.

What about the residual activity (STK39 (human)) of the same compound?
Its residual activity is 89.1%.

What about the residual activity (TNK2 (human)) of the same compound?
Its residual activity is 82.7%.

And the residual activity [1]?
Its residual activity is 104%.

And the residual activity (WNK2 (human))?
Its residual activity is 111%.

What about the residual activity (YES1 (human)) of the same compound?
The residual activity was 91.1%.

How did the residual activity (BMX (human)) turn out when O=C1Nc2ccccc2/C1=C\c1c(Cl)[nH]c2ccccc12 was run?
The residual activity was 99.8%.

And the residual activity (CAMK2A (human))?
The residual activity was 103%.

What about the residual activity (CAMK2G (human)) of the same compound?
Its residual activity is 103%.

And the residual activity (CDK2 CCNE1 (human))?
Its residual activity is 79.9%.

And the residual activity (CDK6 CCND3 (human))?
Its residual activity is 104%.

What about the residual activity (CSF1R (human)) of the same compound?
The residual activity was 97.2%.

What about the residual activity (DYRK3 (human)) of the same compound?
Its residual activity is 101%.

What about the residual activity (EPHA3 (human)) of the same compound?
The residual activity was 95.1%.

And the residual activity (FER (human))?
The residual activity was 91.8%.

And the residual activity (GSG2 (human))?
The residual activity was 91%.

What about the residual activity (IGF1R (human)) of the same compound?
Its residual activity is 105%.

What about the residual activity (IRAK4 (human)) of the same compound?
The residual activity was 102%.

And the residual activity (ITK (human))?
The residual activity was 104%.

And the residual activity (MAP2K1 (human))?
Its residual activity is 84.8%.

And the residual activity (MAP2K2 (human))?
Its residual activity is 98.7%.

And the residual activity (MAP4K2 (human))?
The residual activity was 97.9%.

What about the residual activity (MAP4K4 (human)) of the same compound?
Its residual activity is 75.7%.

And the residual activity (MAPK1 (human))?
The residual activity was 96.4%.

And the residual activity (MAPKAPK2 (human))?
The residual activity was 101%.

And the residual activity (MATK (human))?
Its residual activity is 89.5%.

What about the residual activity (MINK1 (human)) of the same compound?
The residual activity was 94.9%.

What about the residual activity (MST1R (human)) of the same compound?
The residual activity was 97.5%.

And the residual activity (MUSK (human))?
Its residual activity is 96.4%.

And the residual activity (NEK11 (human))?
The residual activity was 98.5%.

And the residual activity (PAK1 (human))?
The residual activity was 92.8%.

What about the residual activity (PBK (human)) of the same compound?
The residual activity was 102%.

And the residual activity (PIM3 (human))?
Its residual activity is 100%.

And the residual activity (PKN1 (human))?
Its residual activity is 94.6%.

What about the residual activity (PRKCB2 (human)) of the same compound?
Its residual activity is 92.6%.

What about the residual activity (PRKD1 (human)) of the same compound?
The residual activity was 89.5%.

What about the residual activity (PTK2 (human)) of the same compound?
The residual activity was 101%.

What about the residual activity (ROCK1 (human)) of the same compound?
The residual activity was 101%.

What about the residual activity (ROCK2 (human)) of the same compound?
Its residual activity is 90.2%.

What about the residual activity (RPS6KA3 KD1 KD2 (human)) of the same compound?
The residual activity was 82.9%.

And the residual activity (RPS6KA4 KD2 (human))?
The residual activity was 93.6%.

And the residual activity (SLK (human))?
Its residual activity is 93.5%.

And the residual activity (SRC (human))?
The residual activity was 78.5%.

What about the residual activity (STK39 (human)) of the same compound?
Its residual activity is 104%.

What about the residual activity (TNK2 (human)) of the same compound?
Its residual activity is 98.4%.

And the residual activity [1]?
Its residual activity is 110%.

What about the residual activity (WNK2 (human)) of the same compound?
Its residual activity is 93.4%.

What about the residual activity (YES1 (human)) of the same compound?
The residual activity was 93.9%.
